Data: US8546608B2, “Proteasome inhibitors and methods of using the same” (Cephalon, Inc., priority 2003, dated 2013)
Counter-ions that a name gives are not always drawn. Like-named read-outs stand apart in the source and are kept apart here.

Tests used:
[1] = molecular target: T1, 20S Human Erythrocyte Proteasome (HEP) (Homo sapiens, UniProt P20618+P28074); assay: Chymotrypsin-like activity of 20S Human Erythrocyte Proteasome (HEP), IC50 determination; type: biochemical; conditions: assay of Example C, inhibition of HEP
T1 construct: 20S Human Erythrocyte Proteasome (HEP), purchased from Immatics Biotechnologies Inc; purchased Immatics Biotechnologies Inc., Tübingen, Germany; host or cells: human erythrocytes (natural source)
Method in brief: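 20S proteasome at 0.2 μg/mL (about 0.6 nM catalytic sites) in 20 mM Tris with 0.04% SDS, preincubated 15 min at 37° C with inhibitor before Suc-LLVY-AMC (100 μM final). AMC fluorescence read in the linear range; triplicates, IC50 from concentration series.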

[2] = molecular target: T2, proteasome in Molt-4 cells (human leukemia) (Homo sapiens, UniProt P20618+P28074); type: cell-based
T2 sequence (P28074 60-263): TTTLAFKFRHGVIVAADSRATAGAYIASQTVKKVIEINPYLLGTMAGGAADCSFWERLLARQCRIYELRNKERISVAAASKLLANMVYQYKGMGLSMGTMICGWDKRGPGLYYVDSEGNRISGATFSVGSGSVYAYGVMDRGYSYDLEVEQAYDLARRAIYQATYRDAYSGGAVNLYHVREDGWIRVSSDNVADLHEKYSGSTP
T2 sequence (P20618 29-241): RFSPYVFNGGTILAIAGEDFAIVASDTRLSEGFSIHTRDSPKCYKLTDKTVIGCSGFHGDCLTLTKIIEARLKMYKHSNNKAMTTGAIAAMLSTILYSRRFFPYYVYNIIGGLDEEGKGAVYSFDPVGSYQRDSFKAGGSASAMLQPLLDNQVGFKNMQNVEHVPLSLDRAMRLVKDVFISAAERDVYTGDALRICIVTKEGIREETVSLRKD
Method in brief: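 Intact Molt-4 cells (6×10^6 cells/mL) in HEPES-buffered saline were preincubated with inhibitor 15 min at 37 °C, then given cell-permeable MeOSuc-FLF-AFC at 25 μM final.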

[3] = assay of Example E, inhibition of MOLT4; read-out: MOLT4 (EC50)
[4] = read-out: MOLT4 (EC50); assay of Example E, inhibition of MOLT4

Structure (SMILES) | IC50 [1] | EC50 [2, 3] | EC50 [2, 4]
CC(C)C[C@H](NC(=O)[C@H](CCCNC(=N)N[N+](=O)[O-])NC(=O)CCCCc1ccccc1)B1O[C@@H]2C[C@@H]3C[C@@H](C3(C)C)[C@]2(C)O1 [D.3.132, 5-Phenylpentanamide,N-[(1S)-1-[[[(1R)-1-[(3aS,4S,6S,7aR)-hexahydro-3a,5,5-trimethyl-4,6-methano-1,3,2-benzodioxaborol-2-yl]-3-methylbutyl]amino]carbonyl]-4-[[imino(nitroamino)methyl]amino]butyl]] | < 10 nM | < 200 nM | 
CC(C)C[C@H](NC(=O)[C@H](CCCNC(=N)N[N+](=O)[O-])NC(=O)CCCOc1ccccc1)B1O[C@@H]2C[C@@H]3C[C@@H](C3(C)C)[C@]2(C)O1 [D.3.104] | < 10 nM | 200 to 2000 nM | 
COCCOCC(=O)N[C@@H](CCCNC(=N)N[N+](=O)[O-])C(=O)N[C@@H](CC(C)C)B(O)O [E.1.6, Boronic acid, [(1R)-1-[[(2S)-5-[[imino(nitroamino)methyl]amino]-2-[[2-(2-methoxyethoxy)acetyl]amino]-1-oxopentyl]amino]-3-methylbutyl], HCl salt] | < 100 nM |  | 2000 to 10000 nM
CC(C)C[C@H](NC(=O)[C@H](CCCNC(=N)N[N+](=O)[O-])NC(=O)CC12CC3CC(CC(C3)C1)C2)B(O)O [E.2.34] | < 10 nM | 2000 to 10000 nM | 
CSCCC(=O)N[C@@H](CCCNC(=N)N[N+](=O)[O-])C(=O)N[C@@H](CC(C)C)B1O[C@@H]2C[C@@H]3C[C@@H](C3(C)C)[C@]2(C)O1 [D.3.138, 3-Methylsulfanylpropanamide,N-[(1S)-1-[[[(1R)-1-[(3aS,4S,6S,7aR)-hexahydro-3a,5,5-trimethyl-4,6-methano-1,3,2-benzodioxaborol-2-yl]-3-methylbutyl]amino]carbonyl]-4-[[imino(nitroamino)methyl]amino]butyl]] | < 100 nM | 200 to 2000 nM | 
CC(C)C[C@H](NC(=O)[C@H](CCCNC(=N)N[N+](=O)[O-])NC(=O)CC12CC3CC(CC(C3)C1)C2)B1O[C@@H]2C[C@@H]3C[C@@H](C3(C)C)[C@]2(C)O1 [D.3.58, 2-Adamantan-1-ylacetamide,N-[(1S)-1-[[[(1R)-1-[(3aS,4S,6S,7aR)-hexahydro-3a,5,5-trimethyl-4,6-methano-1,3,2-benzodioxaborol-2-yl]-3-methylbutyl]amino]carbonyl]-4-[[imino(nitroamino)methyl]amino]butyl]] | < 10 nM | < 200 nM | 
CC(C)C[C@H](NC(=O)[C@H](CCCNC(=N)N[N+](=O)[O-])NC(=O)CCCC(=O)c1ccccc1)B1O[C@@H]2C[C@@H]3C[C@@H](C3(C)C)[C@]2(C)O1 [D.3.105, 5-Oxo-5-phenyl-pentanamide,N-[(1S)-1-[[[(1R)-1-[(3aS,4S,6S,7aR)-hexahydro-3a,5,5-trimethyl-4,6-methano-l,3,2-benzodioxaborol-2-yl]-3-methylbutyl]amino]carbonyl]-4-[[imino(nitroamino)methyl]amino]butyl]] | < 10 nM | 200 to 2000 nM | 
COCCOCCOCC(=O)NCC(=O)N[C@@H](CC(C)C)B1O[C@@H]2C[C@@H]3C[C@@H](C3(C)C)[C@]2(C)O1 [D.2.8, 2-[2-(2-methoxyethoxy)ethoxy]acetamide,N-[1-[[[(1R)-1-[(3aS,4S,6S,7aR)-hexahydro-3a,5,5-trimethyl-4,6-methano-1,3,2-benzodioxaborol-2-yl]-3-methylbutyl]amino]carbonyl]methyl]] | < 100 nM | < 200 nM | 
CCCCc1ccc(C(=O)N[C@@H](CNC(=O)c2cc(C)nn2C)C(=O)N[C@@H](CC(C)C)B(O)O)cc1 [E.5.29, Boronic acid, [(1R)-1-[[(2S)-3-(4-(1,3-dimethyl-1H-pyrazole-5-carbonylamino]-2-[(4-butylbenzoyl)amino]-1-oxopropyl]amino]-3-methylbutyl] hydrochloride] | < 10 nM |  | < 200 nM
CC(C)C[C@H](NC(=O)[C@H](CCCNC(=N)N[N+](=O)[O-])NC(=O)CCCC1CCN(C)CC1)B1O[C@@H]2C[C@@H]3C[C@@H](C3(C)C)[C@]2(C)O1 [D.1.10, 4-(1-Methyl-piperidin-4-yl)-butanamide,N-[(1S)-1-[[[(1R)-1-[(3aS,4S,6S,7aR)-hexahydro-3a,5,5-trimethyl-4,6-methano-1,3,2-benzodioxaborol-2-yl]-3-methylbutyl]amino]carbonyl]-4-[[imino(nitroamino)methyl]amino]butyl]] | < 100 nM | 200 to 2000 nM | 
CCCCCCCCCC(=O)N[C@@H](CCCNC(=N)N[N+](=O)[O-])C(=O)N[C@@H](CC(C)C)B1O[C@@H]2C[C@@H]3C[C@@H](C3(C)C)[C@]2(C)O1 [D.3.1, Decanamide,N-[(1S)-1-[[[(1R)-1-[(3aS,4S,6S,7aR)-hexahydro-3a,5,5-trimethyl-4,6-methano-1,3,2-benzodioxaborol-2-yl]-3-methylbutyl]amino]carbonyl]-4-[[imino(nitroamino)methyl]amino]butyl]] | < 10 nM | < 200 nM | 

Second part, led by results:

IC50 [1] | EC50 [2, 3] | Structure (SMILES) | EC50 [2, 4]
< 10 nM | > 10000 nM | CC(C)C[C@H](NC(=O)[C@H](CCCNC(=N)N[N+](=O)[O-])NC(=O)CCc1cccs1)B(O)O [E.1.12, Boronic acid, [(1R)-1-[[(2S)-5-[[imino(nitroamino)methyl]amino]-2-[(3-thiophen-2-yl-propanoyl)amino]-1-oxopentyl]amino]-3-methylbutyl]] | 
< 10 nM | 200 to 2000 nM | Cc1ccc(OCC(=O)N[C@@H](CCCNC(=N)N[N+](=O)[O-])C(=O)N[C@@H](CC(C)C)B(O)O)cc1C [E.2.22, Boronic acid, [(1R)-1-[[(2S)-5-[[imino(nitroamino)methyl]amino]-2-[[2-(3,4-dimethylphenoxy)acetyl]amino]-1-oxopentyl]amino]-3-methylbutyl]] | 
< 10 nM | > 10000 nM | Cc1cc(C(=O)N[C@@H](CCCNC(=N)N[N+](=O)[O-])C(=O)N[C@@H](CC(C)C)B(O)O)ccc1F [D.7.37] | 
< 10 nM | < 200 nM | CC(C)C[C@H](NC(=O)[C@H](CCCNC(=N)N[N+](=O)[O-])NC(=O)c1cccc2ccccc12)B1O[C@@H]2C[C@@H]3C[C@@H](C3(C)C)[C@]2(C)O1 [D.3.2, Naphthalen-1-carboxamide,N-[(1S)-1-[[[(1R)-1-[(3aS,4S,6S,7aR)-hexahydro-3a,5,5-trimethyl-4,6-methano-1,3,2-benzodioxaborol-2-yl]-3-methylbutyl]amino]carbonyl]-4-[[imino(nitroamino)methyl]amino]butyl]] | 
< 10 nM | 200 to 2000 nM | Cc1ccc(C)c(OCCCC(C)(C)C(=O)N[C@@H](CCCNC(=N)N[N+](=O)[O-])C(=O)N[C@@H](CC(C)C)B(O)O)c1 [D.7.17, Boronic acid, [(1R)-1-[[(2S)-5-[[imino(nitroamino)methyl]amino]-2-[[5-(2,5-dimethylphenoxy)-2,2-dimethylpentanoyl]amino]-1-oxopentyl]amino]-3-methylbutyl]] | 
< 10 nM | < 200 nM | CC(C)C[C@H](NC(=O)[C@@H](NC(=O)c1ccc2ccccc2c1Br)[C@@H](C)O)B(O)O [E.1.25, Boronic acid, [(1R)-1-[[(2S,3R)-3-hydroxy-2-[(1-Bromo-2-naphthoyl)amino]-1-oxobutyl]amino]-3-methylbutyl]] | 
< 10 nM | 200 to 2000 nM | CC(C)C[C@H](NC(=O)[C@H](CCCNC(=N)N[N+](=O)[O-])NC(=O)CCCCCCCc1ccccc1)B(O)O [E.2.46, Boronic acid, [(1R)-1-[[(2S)-5-[[imino(nitroamino)methyl]amino]-2-[(8-phenyloctanoyl)amino]-1-oxopentyl]amino]-3-methylbutyl]] | 
< 10 nM | 200 to 2000 nM | CCCCCCCOc1ccc(NC(=O)N[C@@H](CCCNC(=N)N[N+](=O)[O-])C(=O)N[C@@H](CC(C)C)B(O)O)cc1 [E.2.79, Boronic acid, [(1R)-1-[[(2S)-5-[[imino(nitroamino)methyl]amino]-2-[3-[4-(heptyloxy)phenyl]-ureido]-1-oxopentyl]amino]-3-methylbutyl]] | 
< 100 nM | > 10000 nM | CC(=O)N[C@@H](CCCNC(=N)N[N+](=O)[O-])C(=O)N[C@@H](CC(C)C)B(O)O [E.2.65, Boronic acid, [(1R)-1-[[(2S)-5-[[imino(nitroamino)methyl]amino]-2-[(acetyl)amino]-1-oxopentyl]amino]-3-methylbutyl]] | 
< 10 nM | < 200 nM | CCCCc1ccc(C(=O)N[C@@H](CNC(=O)c2ccc(C)cc2)C(=O)N[C@@H](CC(C)C)B(O)O)cc1 [E.5.5] | 
< 10 nM | < 200 nM | CC(C)C[C@H](NC(=O)[C@H](CCCNC(=N)N[N+](=O)[O-])NC(=O)c1ccc(Br)cc1)B1O[C@@H]2C[C@@H]3C[C@@H](C3(C)C)[C@]2(C)O1 [D.3.24, 4-Bromobenzamide,N-[(1S)-1-[[[(1R)-1-[(3aS,4S,6S,7aR)-hexahydro-3a,5,5-trimethyl-4,6-methano-1,3,2-benzodioxaborol-2-yl]-3-methylbutyl]amino]carbonyl]-4-[[imino(nitroamino)methyl]amino]butyl]] | 
